From patent publication US11726082B2, “Screening method of drug candidates for treating disease using interaction between calcium and phosphatidylinositol phosphate” (Gachon University of Industry—Academic Cooperation …, priority 2017, dated 2023) come the findings set out here.

“Also recorded” adds a separate entry of the source.

One data set addresses T1, PH domain of Akt protein (Homo sapiens, UniProt P31749).
T1 construct: His6 (C); made in house; host or cells: E. coli BL21 (DE3), pET28a vector
Description: Protein-lipid binding assay (PIP-strips) with PH domain of Akt protein. Particulars: calcium 0, 0.05 or 0.1 mM. Here is the method: E. coli BL21 (DE3) cells were transfected with a vector containing the PH domain of Akt protein, and the cells were cultured in 50 Ml of LB medium supplemented with 50 μg/Ml of kanamycin. The culture was performed at 37° C. for 8 hours. Upon completion of the culture, the cells were transferred into a 25° C. agitation incubator. The cells were cultured until OD600 reached 0.6 to 1.0, and then 1 mM IPTG (isopropyl-β-D-1-thiogalactopyranoside) was added thereto. 18 hours after the addition of IPTG, centrifugation was performed at 7,000×g at 4° C. for 10 minutes to obtain cells. Sonication equilibrium buffer (150 mM NaCl, 50 mM Tris-HCl, pH 7.6) was added to the obtained cells. The cells added with the sonication equilibrium buffer were lysed by sonication. The PH domain of Akt protein was purified from the cell lysate by […] using nickel-nitrilotriacetic acid and HiLoad Superdex-200 column (GE Healthcare life science, USA). The purity of the purified protein was examined by SDS-PAGE (sodium dodecyl sulfate polyacrylamide gel electrophoresis).
Particularly, the analysis was performed by using membrane-immobilized lipid strips (PIP-strips, Echelon Biosciences Inc., USA). […]

Data set [1] has as its target T2, PH domain of the purified Akt protein (Homo sapiens, UniProt P31749).
T2 construct: His6 (C); made in house; host or cells: E. coli BL21 (DE3), pET28a vector
Description: ITC of binding of PH domain of purified Akt protein to phospholipids. Particulars: increase of the calcium concentration. The protocol: (§1) Particularly, a protein solution was prepared by suspending a protein in 10 mM HEPES (pH 7.0). Phospholipid related ligand was titrated in the protein solution at 25° C. by using iTC200 micro calorimetry system (MicroCal Inc., USA), and the generated graph was corrected using Origin software (MicroCal Inc., USA). At this time, the phospholipid related ligand was prepared in the form of liposome by mixing POPC (1-palmitoyl-2-oleoyl-sn-glycero-3-phosphocholin) chloroform solution and POPS (1-palmitoyl-2-oleoyl-sn-glycero-3-phosphoserine), PI(3,4)P2 (1,2-dipalmotoyl-sn-glycero-3-phosphatidylinositol-3,4-[…]), PI(4,5)P2 (1,2-dipalmotoyl-sn-glycero-3-phosphatidylinositol-4,5-trisphosphate) or PI(3,4,5)P3 (1,2-dipalmotoyl-sn-glycero-3-phosphatidylinositol-3,4,5-trisphosphate) at the molar ratio of 80:20. The organic solvent was eliminated. The organic solvent was removed and a single layer lamellar was produced in HEPES (pH 7.0) using phospholipids.

In data set [2] the test system is cells having an increased intracellular calcium concentration. Description: Calcium concentration in cells having an increased intracellular calcium concentration. Particulars: cells having an increased intracellular calcium concentration treated with verapamil. It counts as cell-based. In general terms: Calcium flux is commonly read through the fluorescence of an indicator in the cells.

The test system of data set [3] is Akt protein. Kind of data set: Western blotting of Akt protein phosphorylation in insulin-treated HepG2 cells. Particulars: verapamil 0, 5, 10 or 100 nM, with or without insulin. It counts as cell-based, human. Here is the method: First, male C57BL/6 mice at 8 weeks were divided into the fasted group wherein the mice were fasted for 16 hours and the refed group wherein the mice were fasted for 16 hours and then fed for 4 hours. Each group was sub-divided into the high fat diet group (HFD) and the normal diet group (chow). The liver cells were extracted from the raised mice by the same manner and under the same conditions as described in Example 1. The extracted liver cells were lysed in a lysis buffer containing phosphatase (Sigma-Aldrich, USA) and protease inhibitor (Sigma-Aldrich, USA). Proteins extracted from 2 to 3 mg of the liver tissue were homogenized by using a tissue homogenizer (TissuLyser, Qiagen, USA) for 1.5 minutes at a frequency of 1/30 sec. The homogenized lysate was centrifuged at 12,000 rpm for 15 minutes and the supernatant was obtained. The amount of the extracted protein was quantified by using a protein assay kit (Bio-Rad Laboratories, USA), and at this time BSA was used as a standard sample. 3 mg of the protein was mixed with 6× loading buffer, followed by electrophoresis using 10% SDS-PAGE gel. The electrophoresed protein was transferred onto a polyvinylidene fluoride (PVDF) membrane by using a transfer buffer at 4° C. with 120 V for 1.5 hours. The PVDF membrane on which the protein was transferred was pretreated with a blocking buffer prepared by mixing 5% skim milk with TBS buffer (TBS-T, pH 7.6) supplemented with Tween 20 for 30 minutes, and the membrane was washed with TBS-T. The washed membrane was added with the antibody against Akt (Cell Signaling Technology, USA), Akt(T308) (Cell Signaling Technology, USA), Akt(S473) (Cell Signaling Technology, USA), FOXO3A (Cell Signaling Technology, USA), FOXO3A(S253) (Cell Signaling Technology, USA), GSK-3β (Cell Signaling Technology, USA) or GSK-3β(S9) (Cell Signaling Technology, USA) protein as a primary antibody, followed by reaction at 4° C. for 12 hours. At this time, the antibody against actin (Santa Cruz Biotechnology, USA) protein was used for the control group. Upon completion of the reaction, the secondary antibody corresponding to the primary antibody was added thereto, followed by reaction at room temperature for 30 minutes. The PVDF membrane was washed with TBS-T buffer three times. The washed PVDF membrane was added with ECL solution (Thermo Scientific, USA), followed by image observation.
To investigate the changes in insulin sensitivity when insulin was added to the fatty liver cell model constructed in vitro, the phosphorylations of those proteins that were involved in insulin signal transduction were examined. PA was added to the human HepG2 cells prepared in Example 3, followed by reaction for 24 hours. […]
(In western blotting, separated proteins are transferred to a membrane and probed.)

Another data set deals with CHO cells. Description: Migration of mCherry-tagged PH or C2 domain to the cell membrane, fluorescence microscopy. In kind it is cell-based. From the text:
First, the PH domain of Akt1 protein or C2 domain of PKCβ protein was obtained by PCR using the primers consisting of the nucleotide sequences represented by […]. The obtained PCR product was cloned in pmCherry-C1 vector (Takara Clontech, Japan) by the conventional cloning method. CHO cells were transfected with the prepared vector by using lipofectamine according to the manufacturer's protocol. The transfected cells were selected by using blastidicin. Then, mCherry positive cells were confirmed by flow cytometry.
PMA at the concentration of 100 nM, ionomycin at the concentration of 10 μM or insulin at the concentration of 100 nM was added to the cells expressing the PH domain of Akt1 protein or the C2 domain of PKCβ protein and the location of the expressed protein was confirmed by fluorescence microscopy.

Data set [4] in a line: Protein-lipid binding assay with PKCβ protein C2 domain, PI(4,5)P2. Particulars: calcium 0, 0.05 or 0.1 mM. Here is the method: (§2) Particularly, the analysis was performed by using membrane-immobilized lipid strips (PIP-strips, Echelon Biosciences Inc., USA). At this time, the membrane was loaded with LPA (lysophosphatidic acid), LPC (lysophosphatidylcholine), PI (phosphatidylinositol), PE (phosphatidylethanolamine), PC (phosphatidylcholine), S1P (sphingosine 1-phosphate), PA (phosphatidic acid) or PS (phosphatidylserine) at the concentration of 100 pmol, to which calcium was added at the concentration of 0, 0.05 or 0.1 mM. Each membrane was pre-treated with a blocking buffer [fatty acid free 3% BSA (bovine serum albumin), 0.1% (v/v) Tween 20 and TBS (Tris-buffered saline), pH 7.5] at room temperature for 30 minutes. The PH domain of Akt protein purified in Example <7-1> was suspended in a blocking buffer at the concentration of 3.5 mg/Ml. The suspended protein was reacted with the membrane-immobilized lipid strip at room temperature for 30 minutes. The protein bound with lipid was identified by using the PH domain antibody.
(§3) To investigate whether or not the binding of the PKCβ protein C2 domain purified in Example <8-1> to PI(4,5)P2 or PI(3,4,5)P3 was inhibited by calcium, protein lipid binding assay and ITC were performed. […]

The nature of data set [5]: Protein-lipid binding assay with PKCβ protein C2 domain, PI(3,4,5)P3. To be noted: calcium 0, 0.05 or 0.1 mM. Here is the method:
as §2, §3

Data set [6] can be described thus: ITC of PKCβ protein C2 domain with PI(3,4,5)P3 liposome. In kind it is binding. The protocol:
as §1
In the meantime, in ITC, the phospholipid related ligand was prepared in the form of liposome by mixing POPC chloroform solution and PI(3,4,5)P3 at the molar ratio of 80:20. Then, ITC was performed by the same manner under the same conditions as described in Example <7-3> except that the PKCβ protein C2 domain or D187/193A, the C2 domain mutant, was used.

Data set [7] has as its system Akt protein. Kind of data set: Western blot of Akt activation in HepG2 cells transfected with C2-Akt fusion protein or wild type Akt and PI3K. It counts as cell-based, human. To be noted: increase of calcium concentration (PMA 0, 10, 50 or 100 nM, ionomycin 20 μM, 1 hour). The text has this:
First, the C2 domain of PKCβ protein and Akt protein (SEQ. ID. NO: 15) were obtained by PCR using the primers consisting of the nucleotide sequences represented by SEQ. ID. NO: 9˜SEQ. ID. The obtained PCR product was cloned in pEGFP-C2 vector by the conventional cloning method, resulting in the construction of a vector expressing the C2 domain/Akt protein fusion protein (SEQ. ID. NO: 17) (C2-Akt fusion protein). At this time, as the control group, a vector expressing the wild type Akt protein containing the PH domain was prepared.
HepG2 cells were transfected with the vector expressing the C2-Akt fusion protein constructed above along with the vector expressing PI3K protein by using lipofectamine according to the manufacturer's protocol. The transfected cells were treated with PMA at the concentration of 0, 10, 50 or 100 nM ionomycin at the concentration of 20 μM, followed by reaction for 1 hour. Western blot analysis was performed with the cells above. […]

T1 sequence (P31749 1-144): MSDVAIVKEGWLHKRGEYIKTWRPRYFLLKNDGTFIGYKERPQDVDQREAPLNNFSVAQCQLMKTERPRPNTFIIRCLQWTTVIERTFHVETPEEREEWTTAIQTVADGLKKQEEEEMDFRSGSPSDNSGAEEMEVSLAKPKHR
T2 sequence (P31749 1-144): as above

With `[Ca+2]` [calcium], at PH domain of Akt protein, the “binding of PH domain of Akt protein to PI(3,4)P2 or PI(3,4,5)P3” value was “inhibited”. Also, in data set [1], the “binding of PH domain of Akt protein to PI(3,4)P2, PI(4,5)P2, PI(3,4,5)P3 or PS” value is “inhibited”.

For the molecule `COc1ccc(CCN(C)CCCC(C#N)(c2ccc(OC)c(OC)c2)C(C)C)cc1OC` (stereo not drawn) [verapamil], the increased calcium concentration result in [2] is listed as “inhibited; also recorded: reduced”. Also, the “phosphorylation of Akt protein” value in the data set with Akt protein [3] is “increased”.

As for “C2 domain of PKCβ protein: C2 domain of PKCβ protein (SEQ. ID. NO: 14)”, the “migration to the cell membrane” value in the data set with CHO cells (addition of insulin 100 nM) is listed as “did not migrate”; in the data set on CHO cells (increased intracellular calcium concentration (PMA 100 nM, ionomycin 10 μM)) it was “migrated; also recorded: promoted”. For the same molecule, the “binding to PI(4,5)P2” value in data set [4] was “strongly bound; also recorded: promoted”. Moreover, the “binding to PI(3,4,5)P3” value in data set [5] is “strongly bound; also recorded: promoted”; in [6] (absence of calcium) it was “not induced”; in data set [6] (increased calcium concentration), “combined”; in data set [6] (increased calcium concentration, listed as PKCβ protein C2 domain) it was “strongly bound”.

Take “wild type Akt protein: wild type Akt protein containing the PH domain, control”: the “Akt protein activation by PI3K” value in the data set on Akt protein [7] is “inhibited”.
